Laboratory results from patent US20090004137A1, “Uridine Derivatives as Antiviral Drugs Against a Flaviviridae, Especially Hcv” (priority 2004, published 2009).
Like-named read-outs stand apart in the source and are kept apart here.

Experiments:
[1] = Cell viability (neutral red) on the replicon system; assay type: cell-based; details: human, Huh7 cells harbouring the subgenomic HCV replicon BM4-5, neutral red test, drug renewed daily for three days, read-out: CC50, cytotoxicity on Replicon System
Protocol: (§1) Antiviral and Cytotoxicity assays for HCV. Huh7 cells harbouring the subgenomic HCV replicon BM4-5 (J. T. Guo et al., J. Virol. 2001, 75: 8516-8523) were used in this study. Cells were maintained in Dulbecco's modified Eagle's medium high glucose 4.5 g/l (LifeTechnlogies) supplemented with 10% fetal bovine serum, 1% L-glutamine, 1% penicillin and streptomycin, 1% L-Pyruvate and 500 μg/ml of geneticien (G418, Invitrogen). Geneticin was used to select cells permitting the HCV RNA replication. Cells were passaged every four days with a 1:4 ratio.
(§2) For cell viability assays, cells were seeded in 96-well plates at a density of 12,500 cells per well. They were treated by the different molecules with the same concentrations and conditions than those used for the antiviral assays. Then, cell viability was measured by neutral red assay. Neutral red specifically colors lysosomes and its accumulation depends on cellular membrane integrity. The yield of neutral red incorporated in cells is proportional to the number of living cells. At the end of treatment, culture medium was removed; cells were washed by PBS, then coloured with neutral red at 0.005% for 3 hours at 37° C. Cells were then fixed 1 minute by formol calcium and lysed by atreatment with a vol/vol mixture of acetic acid and ethanol. After 15 minutes incubation, absorbance was read at 490 nm.

[2] = system: subgenomic HCV replicon BM4-5 in Huh7 cells; test: Antiviral assay on HCV subgenomic replicon, Northern blot of (+)-strand HCV RNA; assay type: cell-based, Hepatitis C Virus; details: for IC50: read-out: IC50, anti-HCV activity, (+)-RNA; for IC90: read-out: IC90, anti-HCV activity, (+)-RNA; for Selectivity Index (SI), ratio between CC50 and IC50: replicon system
Protocol: as §1
Cells were seeded in 6-wells plates at a density of 2.5×10^5 cells per well, sixteen hours before the beginning of treatment. […] The administration of each drug was renewed every day for three consecutive days. Ribarivin (ICN Pharmaceuticals), mycophenolic acid (MPA, Sigma), and interferon alpha-2b (IntronA®)) were used in the same conditions as positive controls. The concentrations used for these drugs were respectively: 0; 0.5; 1; 2; 4; 8; 16; 32; 64; 128; 256 and 512 μM for ribavirin, 0; 2.5; 5; 10; 20; 40 μM for mycophenolic acid, and 0; 0.1; 1; 10; 100 and 1000 Ul/mL for IFN alpha-2b. Total RNA was extracted at the end of treatment (24 hours after the last day of treatment) with the <<Extract all>> reagent (Eurobio), which is a mix of phenol and guanidium thiocyanate. Northern blot analysis was then performed using the NorthernMax™-Gly kit (Ambion), following manufacturer's instructions. Five micrograms of total RNA were denaturated in glyoxal buffer at 50° C. for 30 minutes, separated by 1.1% agarose gel electrophoresis, and then transferred for 12 hours onto a charged nylon membrane (HybondN+, Amersham). Hybridization was carried out with three different [^32P]CTP-labelled riboprobes obtained by in vitro transcription (Riboprobe in vitro transcription system, Promega). Two probes were complementary to the NS5A region of the HCV genome of negative polarity and positive polarity. A third probe was complementary to the beta-actin mRNA and obtained by in vitro transcription from a specific plasmid (PTRI beta actin human, reference 7424, Ambion). First, the blot was hybridized with the riboprobes directed against the negative strand of HCV RNA and beta-actin mRNA, respectively. After one night of hybridization at 68° C., the membrane was washed, then exposed to X-ray film and a phosphor screen (phosphorimager). This screen was then scanned and quantitative analysis was achieved using ImageQuant software. The amount of beta-actin mRNA was used as an internal loading control to standardize the amount of HCV RNA detected. The same membrane was subsequently hybridized with the […] to determine the level of positive strand HCV RNA, suing the same approach.

[3] = Cytotoxicity against CEM cells; assay type: cell-based; details: human
[4] = Cytotoxicity against VERO cells; assay type: cell-based; details: African green monkey
[5] = Cytotoxicity against PBM cells; assay type: cell-based; details: human
[6] = Cytotoxicity on uninfected MDBK cells (neutral red); assay type: cell-based; details: cattle (bovine)
Protocol: as §2
(§3) Antiviral and cytotoxicity assays for BVDV. Noncytopathic-BVDV-free MDBK cells (European Collection of Animal Cell Cultures, Porton Down, U.K.) were kindly provided by Dr N. Zitzmann (Oxford University). Cells were propagated in DMEM F12 (Eurobio) supplemented with 10% horse serum (Life Technologies), 1% L-glutamin (Gibco), 1% penicillin ansd streptomycin (Gibco). The NADL cytopathic (CP) BVDV strain was obtained from ATCC: VR-504.
Uninfected MDBK cells were grown in the absence or presence of varying concentrations of drug tested. After 3 days, toxicity was evaluated by neutral red coloration as described above.

BVDV strain NADL = test: Antiviral assay on BVDV, inhibition of cytopathic effect in MDBK cells; assay type: cell-based; details: Bovine viral diarrhea virus isolates and strains, read-out: EC50 ECP inhibition (3rd day p.i.)
Protocol: as §3, with “(Gibco).” for “(Gibco). The NADL cytopathic (CP) BVDV strain was obtained from ATCC: VR-504.”
MDBK cells were seeded in microwell plates (96 wells) at a density of 1.10^5 cells per well, then infected with BVDV (strain NADL) (at dilution inducing 100%/o cytopathic effect three days post inoculation, i.e approximately 10 plaque forming units (pfu) per well at three days post infection) for one hour, at 37° C. After a wash with DMEM, infected cells were incubated for three days in the presence of absence of drug; each concentration of drug was added in 12 consecutive wells. The appearance of CPE was visually checked the third day post inoculation to evaluate the IC50 on BVDV (strain NADL), according to the different conditions of treatment.

[7] = system: Huh7 cells harbouring the subgenomic HCV replicon BM4-5; test: Cell viability (neutral red) on the replicon system; assay type: cell-based; details: neutral red test, drug renewed daily for three days, read-out: CC50, cytotoxicity on Replicon System
Protocol: as §1, §2

CEM cells = test: Cytotoxicity against CEM cells; assay type: cell-based
VERO cells = test: Cytotoxicity against VERO cells; assay type: cell-based
PBM cells = test: Cytotoxicity against PBM cells; assay type: cell-based
[8] = Hepatitis C virus, 72 h, Huh7 BM4-5 replicon, positive strand HCV RNA by Northern blot, three days treatment
[9] = Huh7 BM4-5 replicon, positive strand HCV RNA by Northern blot, three days treatment

melting point | SMILES | CC50 at 3 days [1] [µM] | IC50 [2, 8] [µM] | IC90 [2, 8] [µM] | Selectivity Index (SI), ratio between CC50 and IC50 [2] | CC50 [3] [µM] | CC50 [4] [µM] | CC50 [5] [µM] | further results
79 to 81 °C | CC(=O)OC[C@H]1O[C@@H](n2cc(C(Br)=CBr)c(=O)[nH]c2=O)C[C@@H]1OC(C)=O |  |  |  |  |  |  |  | 
83 to 85 °C | CC(=O)OC[C@H]1O[C@@H](n2cc(/C(Br)=C\Br)c(=O)[nH]c2=O)[C@H](OC(C)=O)[C@@H]1OC(C)=O |  |  |  |  |  |  |  | 
78 to 80 °C | CC(=O)OC[C@@H]1C[C@@H](OC(C)=O)[C@H](n2cc(C(Br)=CBr)c(=O)[nH]c2=O)O1 |  |  |  |  |  |  |  | 
175 to 177 °C (dec.) | CC(=O)OC[C@H]1O[C@@H](n2cc(C#CI)c(=O)[nH]c2=O)C[C@@H]1OC(C)=O |  |  |  |  |  |  |  | 
100 to 102 °C | CC(=O)OC[C@H]1O[C@@H](n2cc(C#CI)c(=O)[nH]c2=O)[C@H](OC(C)=O)[C@@H]1OC(C)=O |  |  |  |  |  |  |  | 
76 to 78 °C | CC(=O)OC[C@H]1O[C@@H](n2cc(/C(I)=C\I)c(=O)[nH]c2=O)C[C@@H]1OC(C)=O |  |  |  |  |  |  |  | 
83 to 85 °C | CC(=O)OC[C@H]1O[C@@H](n2cc(/C(I)=C\I)c(=O)[nH]c2=O)[C@H](OC(C)=O)[C@@H]1OC(C)=O |  |  |  |  |  |  |  | 
75 to 77 °C | CC(=O)OC[C@@H]1C[C@@H](OC(C)=O)[C@H](n2cc(/C(I)=C\I)c(=O)[nH]c2=O)O1 |  |  |  |  |  |  |  | 
82 to 84 °C | CC(=O)OC[C@H]1O[C@@H](n2cc(/C(Br)=C\I)c(=O)[nH]c2=O)C[C@@H]1OC(C)=O |  |  |  |  |  |  |  | 
86 to 88 °C | CC(=O)OC[C@H]1O[C@@H](n2cc(/C(Br)=C\I)c(=O)[nH]c2=O)[C@H](OC(C)=O)[C@@H]1OC(C)=O |  |  |  |  |  |  |  | 
 | O=c1[nH]c(=O)n([C@@H]2O[C@H](CO)[C@@H](O)[C@H]2O)cc1C#CBr [Compound 13b, 5-(2-bromoethynyl)-uridine] | 188 | 58 | > 200 | 3.2 | > 100 | > 100 | > 100 | CC50 at 3 days [6]: > 100 µM; EC50 (BVDV strain NADL): > 100 µM
 | O=c1[nH]c(=O)n([C@@H]2O[C@H](CO)C[C@H]2O)cc1/C(Br)=C\I [Compound 15c, (E)-5-(1-Bromo-2-iodovinyl)-3′-deoxyuridine] | > 200 | > 200 | > 200 | ≦1 | 79.3 | > 100 | 71.5 | CC50 at 3 days [6]: > 100 µM; EC50 (BVDV strain NADL): > 100 µM
 | O=c1[nH]c(=O)n([C@@H]2O[C@H](CO)[C@@H](O)[C@H]2O)cc1/C(Cl)=C\I [Compound 16b, (E)-5-(l-Chloro-2-iodovinyl)-uridine] |  |  |  |  |  |  |  | CC50 [7]: > 200 µM; IC50 [2, 9]: 74.9 µM; IC90 [2, 9]: > 250 µM; CC50 (CEM cells): > 100 µM; CC50 (VERO cells): > 100 µM; CC50 (PBM cells): > 100 µM
 | O=c1[nH]c(=O)n([C@@H]2O[C@H](CO)[C@@H](O)[C@H]2O)cc1/C(Br)=C\Br [Compound 17b, (E)-5-(1,2-Dibromovinyl)-uridine] | > 200 | > 200 | > 200 | ≦1 | > 100 | 59.8 | > 100 | 
 | O=c1[nH]c(=O)n([C@@H]2O[C@H](CO)C[C@H]2O)cc1/C(Br)=C\Br [Compound 17c, (E)-5-(1,2-Dibromovinyl)-3′-deoxyuridine] | > 200 | > 200 | > 200 | ≦1 | 79.3 | 7.8 | > 100 | 
 | NC(=O)c1ncn([C@@H]2O[C@H](CO)[C@@H](O)[C@H]2O)n1 [Ribavirin, 1-β-D-ribofuranosyl-1,2,4-triazole-3-carboxamide, reference compound] | 110 |  | > 512 | <1 |  |  |  | CC50 at 3 days [6]: > 100 µM; IC50 ([2]; Hepatitis C virus, 72 h): 170 µM; EC50 (BVDV strain NADL): 36 µM

SMILES | melting point | CC50 at 3 days [1] [µM] | IC50 [2, 8] [µM] | IC90 [2, 8] [µM] | Selectivity Index (SI), ratio between CC50 and IC50 [2] | CC50 [3] [µM] | CC50 [4] [µM] | CC50 [5] [µM] | further results
O=c1[nH]c(=O)n([C@H]2C[C@H](O)[C@@H](CO)O2)cc1C#CI [Compound 12a, 5-(2-Iodoethynyl)-2′-deoxyuridine] | 135 to 137 °C | > 182 | 57.1 | > 239 | >3.2 | 15.8 | > 100 | 7.5 | 
O=c1[nH]c(=O)n([C@H]2C[C@H](O)[C@@H](CO)O2)cc1/C(I)=C\I [Compound 14a, (E)-5-(1,2-Diiodovinyl)-2′-deoxyuridine] | 103 to 105 °C | 76.7 | > 161 | > 263 | <1 | 19.5 | 19.5 | 14.7 | 
O=c1[nH]c(=O)n([C@@H]2O[C@H](CO)[C@@H](O)[C@H]2O)cc1/C(I)=C\I [Compound 14b, (E)-5-(1,2-Diiodovinyl)-uridine] | 107 to 109 °C | > 250 | 162 | > 250 | >1.5 | 41.7 | 49.5 | > 100 | 
